The subject of data set [1] is RAW264.7. Put plainly: Cytotoxicity against mouse RAW264.7 cells upto 50 uM measured after 48 hrs by MTT assay. Particulars: raw264.7, 48 h. It counts as toxicity, cell-based. (Tetrazolium dyes change colour on reduction, which living cells bring about.)
Data set [2] concerns RAW264.7. The data set is described as follows: Anti-inflammatory activity in LPS-stimulated mouse RAW264.7 cells assessed as inhibition of NO production measured after 48 hrs by Griess assay. It counts as functional, cell-based. The note with it: RAW264.7, 48 h.
For data set [3], the system named is RAW264.7. Put plainly: Cytotoxicity against mouse RAW264.7 cells upto 25 uM measured after 48 hrs by MTT assay. The class given is toxicity, cell-based. Particulars: raw264.7, 48 h.
Data set [4] relates to RAW264.7. Put plainly: Cytotoxicity against mouse RAW264.7 cells at 6.25 to 3.125 uM measured after 48 hrs by MTT assay. It counts as toxicity, cell-based. The note with it: raw264.7, 48 h, dose 6.25-3.125 µM.

What is called IC50 is the midpoint of a concentration-inhibition curve. In the case of `Cc1ccc([C@@]2(C(=O)O)CC[C@H](C(=O)O)c3cc([C@@H](C)CCCO)c(C)cc32)cc1[C@@H](C)CCCO`, the Activity entry with RAW264.7 [1] was “Non-Toxic”. In the data set on RAW264.7 [2], the half-maximal inhibitory concentration (IC50) is over 50 µM.

Turning to `CC(=O)OCCC[C@H](C)C1=C(C)C[C@H]2OC(=O)[C@@]3(C[C@]45C(=C(C)[C@H]3[C@@H]4OC(C)=O)C[C@H]3[C@H](C[C@@H]5C)OC(=O)[C@H]3C)[C@H]2[C@@H]1O`, the Activity result in the data set on RAW264.7 [3] is “Non-Toxic”. Further, the half-inhibitory concentration (IC50) in the data set on RAW264.7 [2] was determined as 5.73 µM.

Consider `C=C1C[C@H]2OC(=O)[C@@]3(C[C@]45C(=C(C)[C@H]3[C@@H]4OC(C)=O)C[C@@H]3C(=C)C(=O)O[C@H]3C[C@@H]5C)[C@H]2C=C1[C@@H](C)CCCOC(C)=O`, for which the Activity entry in the data set on RAW264.7 [4] is “Non-Toxic”. The IC50 in the data set on RAW264.7 [2] is over 50 µM.

`C=C1C(=O)O[C@H]2C[C@H](C)[C@@]34C[C@](C(=O)O)(c5ccc(C)c([C@@H](C)CCCO)c5)[C@@H](C(C)=C3C[C@H]12)[C@@H]4OC(C)=O`: in the data set on RAW264.7 [1], the Activity entry was “Non-Toxic”. In the data set on RAW264.7 [2], the IC50 is 7.82 µM.

`C=C1C(=O)O[C@H]2C[C@H](C)[C@@]34C[C@@]5(C(=O)O[C@@H]6C[C@@](C)(O)C([C@@H](C)CCCO)=C[C@@H]65)[C@@H](C(C)=C3C[C@H]12)[C@@H]4OC(C)=O`: the Activity entry in the data set with RAW264.7 [1] is listed as “Non-Toxic”. The IC50 in the data set with RAW264.7 [2] was 10 µM.

On to `CC(=O)O[C@H]1[C@@H]2C(C)=C3C[C@H]4[C@H](C[C@H](C)[C@@]31C[C@@]21C(=O)O[C@@H]2C[C@@](C)(O)C([C@@H](C)CCCO)=C[C@@H]21)OC(=O)[C@H]4C`, for which, in the data set on RAW264.7 [1], the Activity entry is “Non-Toxic”. Further, the 50% inhibitory concentration (IC50) in the data set on RAW264.7 [2] was over 50 µM.

With `C=C1C(=O)O[C@H]2C[C@H](C)[C@@]34C[C@@]5(C(=O)O[C@@H]6C[C@](C)(O)C([C@@H](C)CCCOC(C)=O)=C[C@@H]65)[C@@H](C(C)=C3C[C@H]12)[C@@H]4OC(C)=O`, the Activity result in the data set with RAW264.7 [3] was “Non-Toxic”. In the data set on RAW264.7 [2], the 50% inhibitory concentration (IC50) amounted to 4.07 µM.

`CC(=O)OCCC[C@H](C)c1cc([C@@]2(C(=O)O)CC[C@H](C(=O)O)c3cc([C@@H](C)CCCO)c(C)cc32)ccc1C`: the Activity entry in the data set with RAW264.7 [1] is given as “Non-Toxic”. In addition, the IC50 in the data set with RAW264.7 [2] is over 50 µM.

For `CC(=O)OCCC[C@H](C)c1cc([C@@]2(C(=O)O)CC[C@H](C(=O)O)c3cc([C@@H](C)CCCOC(C)=O)c(C)cc32)ccc1C`, the Activity result in the data set on RAW264.7 [1] is “Non-Toxic”. Also, the IC50 with RAW264.7 [2] was over 50 µM.

`CC(=O)O[C@H]1[C@@H]2C(C)=C3C[C@H]4[C@H](C[C@H](C)[C@@]31C[C@]2(C(=O)O)c1ccc(C)c([C@@H](C)CCCO)c1)OC(=O)[C@H]4C`: the Activity entry in the data set with RAW264.7 [1] is reported as “Non-Toxic”. Moreover, the half-maximal inhibitory concentration (IC50) in the data set on RAW264.7 [2] is over 50 µM.

For `C[C@]12CCC(=O)C=C1CC[C@@H]1[C@@H]2[C@@H](O)C[C@@]2(C)[C@H]1CC[C@]2(O)C(=O)COC(=O)CCC(=O)O` [HYDROCORTISONE SODIUM SUCCINATE], the IC50 in the data set with RAW264.7 [2] is 44 µM.
